Holding throughout (format): cell-based
The target in experiment [1] is T1, group I metabotropic glutamate receptor subtype 5 (mGluR5) (Homo sapiens, UniProt P41594).
T1 construct: expressed in transfected cells; host or cells: Xenopus oocytes injected with cRNA
Description: Electrophysiological measurement of response current in Xenopus oocytes injected with mGluR5 cRNA. The following applies: aspartic acid 300 μM, valine 3 mM; for mGluR5 (receptor activation by amino acid): amino acid alone, others 10 mM, oocytes injected with mGluR5 cRNA; for mGluR5 (receptor activation by amino acid) / effect of amino acid (response current value) with nucleic acid and cation vs amino acid alone: cysteine 1 mM; for effect of amino acid (response current value) with nucleic acid and cation vs amino acid alone: coexistence with both inosinic acid (1 mM) and calcium ion (10 mM), FIG. 4; for effect of amino acid (response current value) with nucleic acid and cation vs amino acid alone / effect of amino acid (response current value) with cation vs amino acid alone / effect of amino acid (response current value) with nucleic acid vs amino acid alone: glutamic acid 3 μM; for effect of amino acid (response current value) with cation vs amino acid alone: coexistence with calcium ion (10 mM), FIG. 3; for effect of amino acid (response current value) with cation vs amino acid alone / effect of amino acid (response current value) with nucleic acid vs amino acid alone: cysteine 3 mM; for effect of amino acid (response current value) with nucleic acid vs amino acid alone: coexistence with inosinic acid (1 mM), FIG. 2. From the text:
A metabotropic glutamate receptor subtype 5 (mGluR5) was used as a group I metabotropic glutamate receptor. A metabotropic glutamate receptor subtype 3 (mGluR3) was used as a representative of group II metabotropic glutamate receptors. A metabotropic glutamate receptor subtype 8 (mGluR8) was used as a representative of group III metabotropic glutamate receptors. The genes of the three metabotropic glutamate receptors, G-protein-gated inward rectifier K channel 1 (GIRK1), and G-protein-gated inward rectifier K channel 4 (GIRK4) were prepared as follows.
PCR was performed using a cDNA derived from the human brain (manufactured by Clontech) as a material and using Pfu ultra DNA Polymerase (manufactured by Stratagene) under the following conditions. After a 3-minute reaction at 94° C., a cycle of 94° C./30 seconds, 55° C./30 seconds, and 72° C./2 minutes was repeated 35 times, followed by a 7-minute reaction at 72° C. Amplified PCR products were subjected to agarose gel electrophoresis, stained with a DNA staining reagent and detected by UV irradiation. The lengths of the PCR products were confirmed by comparing the lengths with a DNA marker having a known size, which was electrophoresed simultaneously with the PCR products. A plasmid vector pBR322 was cleaved with a restriction enzyme EcoRV (manufactured by TAKARA BIO INC.). The respective gene fragments amplified by PCR were ligated to the cleaved site using Ligation Kit (manufactured by Promega). Escherichia coli DH5a strain was transformed with the reaction solution, and transformants carrying plasmids where the PCR products were cloned were selected. The PCR amplified products were identified by DNA sequence analysis. The recombinant plasmids were used as a template to prepare cRNA of each of the receptor genes using a cRNA preparation kit (Ambion, Inc.).
Special grade reagents of twenty-three L-amino acids including alanine, arginine, asparagine, aspartic acid, cysteine, glutamine, glutamic acid, glycine, histidine, isoleucine, leucine, lysine, methionine, phenylalanine, proline, serine, threonine, tryptophan, tyrosine, valine, ornithine, taurine, and hydroxyproline were used. Special grade reagents of inosine and calcium chloride were used. Glutamine and cysteine were prepared every time before use, and the other reagents were prepared and stored at −20° C. A solution for dissolving amino acids, nucleic acids, and cations, a solution for preparing Xenopus oocytes, and a solution for culturing Xenopus oocytes have the following composition. NaCl 96 mM/KCl 2 mM/MgCl2 1 mM/CaCl2 1.8 mM/Hepes 5 mM/pH 7.2.
Ca ion concentration-dependent Cl ion current measurement method using a Xenopus oocyte expression system was used as a method of measuring the signaling via a metabotropic glutamate receptor. The abdomen of a Xenopus were incised, and the egg mass was removed and treated with a 1% collagenase solution at 20° C. for 2 hours, to thereby obtain individual oocytes. To one oocyte was introduced 50 nl of 1 μg/μl receptor cRNA or 50 nl of distilled water using a microcapillary, followed by culture at 18° C. for 2 or 3 days. This culture was performed using a solution obtained by adding 2 mM pyruvic acid, 10 U/ml penicillin, and 10 μg/ml streptomycin to the solution shown in Example 2. After completion of culture, a ligand solution was added to oocytes injected with the cRNA and oocytes injected with distilled water, respectively. Electrophysiological measurement was performed using an amplifier Geneclamp 500 (manufactured by Axon Instruments, Inc.) and recording software AxoScope 9.0 (manufactured by Axon Instruments, Inc.). The oocytes were subjected to membrane potential fixation at −70 mV by a two-electrode membrane potential fixation method, and intracellular currents via Ca ion concentration-dependent Cl ion were measured. The maximal value of the intracellular currents was defined as a response current value.

In experiment [2] the target is T2, group II metabotropic glutamate receptor subtype 3 (mGluR3) (Homo sapiens, UniProt Q14832).
T2 construct: expressed in transfected cells; host or cells: Xenopus oocytes injected with cRNAs of mGluR3, GIRK1 and GIRK4
In words: Electrophysiological measurement of response current in Xenopus oocytes injected with mGluR3, GIRK1 and GIRK4 cRNAs. As to conditions: for mgluR3 (receptor activation by amino acid): amino acid alone, 1 mM, oocytes injected with mGluR3, GIRK1, GIRK4 cRNAs; for effect of amino acid (response current value) with cation vs amino acid alone: coexistence with calcium ion (10 mM), FIG. 7; for effect of amino acid (response current value) with cation vs amino acid alone / effect of amino acid (response current value) with nucleic acid and cation vs amino acid alone / effect of amino acid (response current value) with nucleic acid vs amino acid alone: glutamic acid 3 μM, aspartic acid 300 μM, leucine 1 mM; for effect of amino acid (response current value) with cation vs amino acid alone / effect of amino acid (response current value) with nucleic acid and cation vs amino acid alone: cysteine 1 mM; for effect of amino acid (response current value) with nucleic acid and cation vs amino acid alone: coexistence with inosinic acid (1 mM) and calcium ion (10 mM), FIG. 8; for effect of amino acid (response current value) with nucleic acid vs amino acid alone: coexistence with inosinic acid (1 mM), valine 1 mM, FIG. 6.

Experiment [3] has as its target T3, group III metabotropic glutamate receptor subtype 8 (mGluR8) (Homo sapiens, UniProt O00222).
T3 construct: expressed in transfected cells; host or cells: Xenopus oocytes injected with cRNAs of mGluR8, GIRK1 and GIRK4
In words: Electrophysiological measurement of response current in Xenopus oocytes injected with mGluR8, GIRK1 and GIRK4 cRNAs. As to conditions: cysteine 1 mM; for mgluR8 (receptor activation by amino acid): amino acid alone, aspartic acid 300 μM, valine 3 mM, others 10 mM, oocytes injected with mGluR8, GIRK1, GIRK4 cRNAs; for effect of amino acid (response current value) with nucleic acid and cation vs amino acid alone: coexistence with both inosinic acid (1 mM) and calcium ion (10 mM), FIG. 12; for effect of amino acid (response current value) with nucleic acid and cation vs amino acid alone / effect of amino acid (response current value) with cation vs amino acid alone / effect of amino acid (response current value) with nucleic acid vs amino acid alone: glutamic acid 3 μM; for effect of amino acid (response current value) with cation vs amino acid alone: coexistence with calcium ion (10 mM), FIG. 11; for effect of amino acid (response current value) with nucleic acid vs amino acid alone: coexistence with inosinic acid (1 mM), FIG. 10.

From patent publication US20080182811A1, “METABOTROPIC GLUTAMATE RECEPTOR ACTIVATOR” (Ajinomoto Co., Inc., priority 2005, published 2008) come the findings set out here.

T1 sequence (P41594 21-1180 isoform P41594-2 limits assumed): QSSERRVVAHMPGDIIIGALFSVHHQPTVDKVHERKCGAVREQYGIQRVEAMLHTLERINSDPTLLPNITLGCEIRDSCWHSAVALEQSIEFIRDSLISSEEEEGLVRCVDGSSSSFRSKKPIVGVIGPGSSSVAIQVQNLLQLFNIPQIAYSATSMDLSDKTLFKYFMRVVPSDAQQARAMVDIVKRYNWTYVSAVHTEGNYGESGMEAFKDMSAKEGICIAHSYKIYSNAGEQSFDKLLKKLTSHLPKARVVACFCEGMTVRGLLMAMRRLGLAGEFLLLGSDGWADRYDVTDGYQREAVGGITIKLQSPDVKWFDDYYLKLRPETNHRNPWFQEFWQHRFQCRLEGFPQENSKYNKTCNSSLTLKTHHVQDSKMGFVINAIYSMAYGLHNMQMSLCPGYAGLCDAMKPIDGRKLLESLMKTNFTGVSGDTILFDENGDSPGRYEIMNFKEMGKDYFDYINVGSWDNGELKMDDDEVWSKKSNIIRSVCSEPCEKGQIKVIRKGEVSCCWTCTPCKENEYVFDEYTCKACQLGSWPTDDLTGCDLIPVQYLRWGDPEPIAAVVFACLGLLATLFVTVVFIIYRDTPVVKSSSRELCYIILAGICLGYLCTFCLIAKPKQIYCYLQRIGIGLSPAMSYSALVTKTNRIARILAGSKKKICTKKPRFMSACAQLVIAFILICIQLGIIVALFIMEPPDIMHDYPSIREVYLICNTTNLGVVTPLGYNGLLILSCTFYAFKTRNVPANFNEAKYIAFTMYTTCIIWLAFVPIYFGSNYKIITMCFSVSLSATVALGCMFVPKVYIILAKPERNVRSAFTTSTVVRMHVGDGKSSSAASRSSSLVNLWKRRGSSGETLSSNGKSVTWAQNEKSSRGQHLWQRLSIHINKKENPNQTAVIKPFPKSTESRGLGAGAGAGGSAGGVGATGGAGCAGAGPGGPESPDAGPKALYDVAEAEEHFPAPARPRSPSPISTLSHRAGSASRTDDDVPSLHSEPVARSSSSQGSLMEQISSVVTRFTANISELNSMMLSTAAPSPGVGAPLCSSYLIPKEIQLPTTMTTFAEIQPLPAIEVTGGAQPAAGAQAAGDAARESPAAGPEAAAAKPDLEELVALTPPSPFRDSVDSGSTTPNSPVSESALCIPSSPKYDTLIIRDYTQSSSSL
T2 sequence (Q14832 23-879): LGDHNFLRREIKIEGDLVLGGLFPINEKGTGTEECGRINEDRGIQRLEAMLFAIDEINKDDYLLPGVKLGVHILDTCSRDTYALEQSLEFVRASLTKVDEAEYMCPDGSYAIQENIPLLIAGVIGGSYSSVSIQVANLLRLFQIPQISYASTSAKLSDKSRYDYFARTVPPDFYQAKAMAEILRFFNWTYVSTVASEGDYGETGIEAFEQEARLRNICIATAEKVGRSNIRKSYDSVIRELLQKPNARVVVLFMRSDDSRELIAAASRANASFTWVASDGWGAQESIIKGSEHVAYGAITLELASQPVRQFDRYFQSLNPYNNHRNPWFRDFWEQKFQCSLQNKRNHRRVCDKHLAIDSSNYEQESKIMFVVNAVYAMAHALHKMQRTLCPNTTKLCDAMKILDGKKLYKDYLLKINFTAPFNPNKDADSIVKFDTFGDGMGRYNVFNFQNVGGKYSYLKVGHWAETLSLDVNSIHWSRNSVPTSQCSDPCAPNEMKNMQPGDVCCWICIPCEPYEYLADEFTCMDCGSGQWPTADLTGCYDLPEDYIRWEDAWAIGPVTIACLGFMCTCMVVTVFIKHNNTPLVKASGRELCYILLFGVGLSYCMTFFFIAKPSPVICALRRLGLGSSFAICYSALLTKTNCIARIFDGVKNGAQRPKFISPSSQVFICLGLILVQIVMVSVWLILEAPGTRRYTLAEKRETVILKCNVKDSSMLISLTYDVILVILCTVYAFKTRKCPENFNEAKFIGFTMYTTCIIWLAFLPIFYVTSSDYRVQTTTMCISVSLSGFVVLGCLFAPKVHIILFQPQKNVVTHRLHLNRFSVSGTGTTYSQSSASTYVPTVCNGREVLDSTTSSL
T3 sequence (O00222 34-908): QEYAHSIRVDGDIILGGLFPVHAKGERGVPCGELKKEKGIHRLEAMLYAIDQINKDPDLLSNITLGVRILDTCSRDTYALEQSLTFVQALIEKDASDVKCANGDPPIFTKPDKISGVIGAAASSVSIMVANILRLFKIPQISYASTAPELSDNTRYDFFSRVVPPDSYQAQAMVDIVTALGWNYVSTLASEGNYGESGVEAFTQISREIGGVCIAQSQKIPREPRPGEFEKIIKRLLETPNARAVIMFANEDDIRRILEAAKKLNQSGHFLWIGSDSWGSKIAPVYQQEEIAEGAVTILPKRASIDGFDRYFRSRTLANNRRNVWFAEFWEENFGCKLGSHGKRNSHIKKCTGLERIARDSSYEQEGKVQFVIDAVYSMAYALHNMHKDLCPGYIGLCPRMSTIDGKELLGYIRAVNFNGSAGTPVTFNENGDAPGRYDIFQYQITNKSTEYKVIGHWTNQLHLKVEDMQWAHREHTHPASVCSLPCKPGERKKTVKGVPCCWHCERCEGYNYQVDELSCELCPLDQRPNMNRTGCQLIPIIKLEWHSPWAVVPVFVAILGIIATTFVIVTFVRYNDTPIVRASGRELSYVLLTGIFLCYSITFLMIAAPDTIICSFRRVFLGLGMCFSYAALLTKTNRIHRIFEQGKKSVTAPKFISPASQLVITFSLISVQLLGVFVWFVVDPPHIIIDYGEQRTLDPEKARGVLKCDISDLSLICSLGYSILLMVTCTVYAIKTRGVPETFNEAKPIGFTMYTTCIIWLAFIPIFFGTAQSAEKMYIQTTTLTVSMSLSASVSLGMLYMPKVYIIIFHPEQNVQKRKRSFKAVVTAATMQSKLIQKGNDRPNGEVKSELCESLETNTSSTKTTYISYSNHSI

Take `N[C@@H](CC(=O)O)C(=O)O` [Aspartic acid, aspartic acid]: in experiment [1], the “mGluR5 (receptor activation by amino acid)” value (from here on “mGluR5”) was “Activated”; the “effect of amino acid (response current value) with nucleic acid and cation vs amino acid alone” value is “enhanced”; the “effect of amino acid (response current value) with cation vs amino acid alone” value (from here on “effect … with cation vs amino acid alone”) is “enhanced”; the “effect of amino acid (response current value) with nucleic acid vs amino acid alone” value (shortened to “effect … with nucleic acid vs amino acid alone”) was “enhanced”. Moreover, in experiment [1] (listed as aspartic acid), the “mGluR5” value is recorded as “effects of enhancing”. In experiment [2], the “mgluR3 (receptor activation by amino acid)” value (from here on “mgluR3”) was “Activated”; the “effect … with cation vs amino acid alone” value is reported as “enhanced”; the “effect of amino acid (response current value) with nucleic acid and cation vs amino acid alone” value is “enhanced”; the “effect … with nucleic acid vs amino acid alone” value is on record as “enhanced”. Moreover, in experiment [2] (listed as aspartic acid), the “mgluR3” value is given as “effects of enhancing the activation”.

Turning to `N[C@@H](CS)C(=O)O` [Cysteine, cysteine], in experiment [1], the “mGluR5” value is recorded as “Activated”; the “effect of amino acid (response current value) with nucleic acid and cation vs amino acid alone” value is “enhanced”; the “effect … with cation vs amino acid alone” value is on record as “enhanced”; the “effect … with nucleic acid vs amino acid alone” value is given as “enhanced”. Besides, the “mGluR5” value in experiment [1] (listed as cysteine) was “effects of enhancing”. For the same molecule, in experiment [2], the “mgluR3” value is “Activated”; the “effect … with cation vs amino acid alone” value is listed as “enhanced”; the “effect of amino acid (response current value) with nucleic acid and cation vs amino acid alone” value was “enhanced”. For the same molecule, the “mgluR3” value in experiment [2] (listed as cysteine) was “effects of enhancing the activation”. Also, in experiment [3], the “mgluR8 (receptor activation by amino acid)” value (from here on “mgluR8”) is listed as “Activated”; the “effect of amino acid (response current value) with nucleic acid and cation vs amino acid alone” value is given as “enhanced”; the “effect … with cation vs amino acid alone” value is “enhanced”; the “effect … with nucleic acid vs amino acid alone” value is recorded as “enhanced”. In addition, in experiment [3] (listed as cysteine), the “mgluR8” value was “effects of activating”.

Take `CC(C)[C@H](N)C(=O)O` [Valine, valine]: in experiment [1], the “mGluR5” value is recorded as “Activated”; the “effect of amino acid (response current value) with nucleic acid and cation vs amino acid alone” value is “enhanced”; the “effect … with cation vs amino acid alone” value is “enhanced”; the “effect … with nucleic acid vs amino acid alone” value is on record as “enhanced”. The “mGluR5” value in experiment [1] (listed as valine) is “effects of enhancing”. Further, in experiment [2], the “mgluR3” value is on record as “Activated” and the “effect … with nucleic acid vs amino acid alone” value is “enhanced”. The “mgluR3” value in experiment [2] (listed as valine) is “effects of enhancing the activation”.

For `N[C@@H](CCC(=O)O)C(=O)O` [Glutamic acid, glutamic acid, reference compound], in experiment [1], the “mGluR5” value is listed as “Activated”; the “effect of amino acid (response current value) with nucleic acid and cation vs amino acid alone” value is “enhanced”; the “effect … with cation vs amino acid alone” value is “enhanced”; the “effect … with nucleic acid vs amino acid alone” value is on record as “enhanced”. In addition, the “mGluR5” value in experiment [1] (listed as glutamic acid) is given as “effects of enhancing”. Moreover, in experiment [2], the “mgluR3” value is “Activated”; the “effect … with cation vs amino acid alone” value is “enhanced”; the “effect of amino acid (response current value) with nucleic acid and cation vs amino acid alone” value is “enhanced”; the “effect … with nucleic acid vs amino acid alone” value is reported as “enhanced”. Moreover, in experiment [2] (listed as glutamic acid), the “mgluR3” value is “effects of enhancing the activation”. Besides, in experiment [3], the “mgluR8” value is listed as “Activated”; the “effect of amino acid (response current value) with nucleic acid and cation vs amino acid alone” value was “enhanced”; the “effect … with cation vs amino acid alone” value is listed as “enhanced”; the “effect … with nucleic acid vs amino acid alone” value is reported as “enhanced”. Moreover, in experiment [3] (listed as glutamic acid), the “mgluR8” value was “effects of activating”.
